Calls of active or inactive are those of the source. No cut-off for these calls is given here.
Columns and labels:
[1] = molecular target: T1, Mitogen-activated protein kinase kinase kinase 14 (Homo sapiens, UniProt Q99558); experiment: Inhibition of recombinant human N-terminal GST-tagged NIK (318 to 947 residues) expressed in baculovirus infected Sf9 cells using ultrapure ATP as substrate measured after 1 hr by ADP-glo assay
Mus musculus = experiment: Antiinflammatory activity in CCl4-induced C57BL/6 mouse model of liver injury assessed as reduction in immune cell infiltration in liver at 25 mg/kg, po administered 30 mins prior to CCl4 addition followed by compound redosing at 3 hrs interval for 9 hrs and measured 12 hrs […] by F4/80/DAPI staining based immunofluorescence assay; format: functional, organism-based
[2] = molecular target: T1, Mitogen-activated protein kinase kinase kinase 14; experiment: Inhibition of human NIK using ATP as substrate by kinase-glo assay
[3] = molecular target: Mitogen-activated protein kinase kinase kinase 14 (Mus musculus) (UniProt Q9WUL6); experiment: Inhibition of NIK in NIK/p100 adenoviruses infected C57BL/6 mouse primary hepatocytes assessed as suppression of NIK-mediated proteolysis of p100 to p52 by measuring reduction in p52 level at 5 uM measured after 16 hrs by Western blot analysis
Hepatocyte = experiment: Down regulation of NIK expression in NIK/p100 adenoviruses infected C57BL/6 mouse primary hepatocytes at 5 uM measured after 16 hrs by Western blot analysis; format: functional, cell-based
[4] = Oral bioavailability in ICR mouse; format: ADME, organism-based; details: in vivo
[5] = Stability of the compound in pH 1 aqueous solution; format: physicochemical; details: buffer

T1 sequence (Q99558 whole entry, the tested form may be a part): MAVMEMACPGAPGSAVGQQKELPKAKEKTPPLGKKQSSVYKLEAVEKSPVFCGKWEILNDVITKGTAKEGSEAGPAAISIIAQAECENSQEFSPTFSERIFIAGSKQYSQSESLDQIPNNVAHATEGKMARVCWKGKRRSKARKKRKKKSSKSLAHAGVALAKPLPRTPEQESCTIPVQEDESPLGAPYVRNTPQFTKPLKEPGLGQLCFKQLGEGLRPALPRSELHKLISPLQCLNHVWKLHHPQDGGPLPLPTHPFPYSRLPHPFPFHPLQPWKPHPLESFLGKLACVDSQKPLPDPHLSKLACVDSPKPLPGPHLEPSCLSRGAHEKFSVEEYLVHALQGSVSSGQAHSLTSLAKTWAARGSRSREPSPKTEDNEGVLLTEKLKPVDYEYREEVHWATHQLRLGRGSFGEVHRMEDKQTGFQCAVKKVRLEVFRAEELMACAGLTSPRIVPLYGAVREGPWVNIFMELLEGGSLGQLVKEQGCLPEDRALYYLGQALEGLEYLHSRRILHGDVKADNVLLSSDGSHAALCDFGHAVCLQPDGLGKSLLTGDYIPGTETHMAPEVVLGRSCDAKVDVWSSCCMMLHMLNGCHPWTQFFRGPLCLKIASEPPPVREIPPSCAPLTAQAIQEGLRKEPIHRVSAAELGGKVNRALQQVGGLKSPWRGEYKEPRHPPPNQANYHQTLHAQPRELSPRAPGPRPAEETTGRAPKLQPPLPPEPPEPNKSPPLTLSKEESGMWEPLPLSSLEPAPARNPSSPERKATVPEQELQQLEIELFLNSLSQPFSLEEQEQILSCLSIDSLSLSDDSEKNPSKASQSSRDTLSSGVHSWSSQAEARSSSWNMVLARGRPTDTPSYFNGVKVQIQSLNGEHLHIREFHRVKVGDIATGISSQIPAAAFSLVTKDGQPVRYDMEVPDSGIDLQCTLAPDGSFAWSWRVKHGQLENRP
Sequence of Mitogen-activated protein kinase kinase kinase 14 (Mus musculus) (Q9WUL6 whole entry): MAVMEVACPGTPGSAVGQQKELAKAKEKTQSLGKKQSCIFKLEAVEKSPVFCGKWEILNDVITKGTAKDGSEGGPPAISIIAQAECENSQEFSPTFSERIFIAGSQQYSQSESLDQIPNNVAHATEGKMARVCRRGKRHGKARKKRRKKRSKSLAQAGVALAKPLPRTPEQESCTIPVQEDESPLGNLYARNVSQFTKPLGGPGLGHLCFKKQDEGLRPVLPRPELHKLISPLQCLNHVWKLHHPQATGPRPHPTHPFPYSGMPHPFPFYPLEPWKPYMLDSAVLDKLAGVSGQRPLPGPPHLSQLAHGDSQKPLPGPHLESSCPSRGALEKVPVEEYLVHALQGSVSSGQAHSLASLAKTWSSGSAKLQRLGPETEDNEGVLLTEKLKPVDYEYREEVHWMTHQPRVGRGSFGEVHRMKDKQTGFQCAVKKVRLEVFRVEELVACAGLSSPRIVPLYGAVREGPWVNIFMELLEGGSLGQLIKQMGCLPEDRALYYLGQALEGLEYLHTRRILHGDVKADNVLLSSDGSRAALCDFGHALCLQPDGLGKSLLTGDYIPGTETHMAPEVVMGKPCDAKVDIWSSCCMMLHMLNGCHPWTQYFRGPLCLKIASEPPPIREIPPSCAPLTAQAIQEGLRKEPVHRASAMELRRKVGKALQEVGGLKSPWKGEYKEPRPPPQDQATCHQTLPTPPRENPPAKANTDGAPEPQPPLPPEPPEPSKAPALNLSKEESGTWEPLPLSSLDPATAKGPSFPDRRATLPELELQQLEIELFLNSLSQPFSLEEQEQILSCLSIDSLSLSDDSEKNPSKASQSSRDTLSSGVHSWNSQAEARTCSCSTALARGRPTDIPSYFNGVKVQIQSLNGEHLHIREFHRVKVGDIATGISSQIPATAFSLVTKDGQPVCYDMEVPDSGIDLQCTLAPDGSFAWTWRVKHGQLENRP

Structure (SMILES): Cc1ccc(C#CC(C)(O)c2nccs2)cc1-n1ccc2cnc(N)nc21 (centres undefined)
- IC50 [1]: 335 nM

Structure (SMILES): CN(C)C(=O)C(C)(O)C#Cc1cccc(-c2c[nH]c3cnc(N)nc23)c1 (centres undefined)
- IC50 [1]: > 10000 nM

Structure (SMILES): CC(O)(C#Cc1cccc(-c2c[nH]c3cnc(N)nc23)c1F)c1nccs1 (centres undefined)
- IC50 [1]: 10900 nM

Structure (SMILES): CC(O)(C#Cc1ccc(-n2ccc3cnc(N)nc32)cc1)c1nccs1 (centres undefined)
- IC50 [1]: 3840 nM

Structure (SMILES): CN1CCCC(O)(C#Cc2cc(-n3ccc4cnc(N)nc43)ccn2)C1=O (centres undefined)
- IC50 [1]: 25.7 nM

Structure (SMILES): CC(O)(C#Cc1cccc(-n2cc(Cl)c3cnc(N)nc32)c1)c1nccs1 (centres undefined)
- IC50 [1]: 2060 nM

Structure (SMILES): CC(O)(C#Cc1cc(F)cc(-c2c[nH]c3cnc(N)nc23)c1)c1nccs1 (centres undefined)
- IC50 [1]: 319 nM

Structure (SMILES): CC(O)(C#Cc1cccc(-n2ccc3cnc(N)nc32)c1)c1nccs1 (centres undefined)
- IC50 [1]: 303 nM

Structure (SMILES): C[C@@](O)(C#Cc1ccc2c(c1)N(c1nc(N)ncc1Cl)CC2)c1nccs1
- Activity (Mus musculus): Active
- IC50 [1]: 15.1 nM
- IC50 [2]: 4.2 nM
- inhibition [3]: Active
- Activity (Hepatocyte): inactive

Structure (SMILES): CCC(O)(C#Cc1cc(-n2ccc3cnc(N)nc32)ccn1)c1nccs1 (centres undefined)
- IC50 [1]: 2290 nM

Structure (SMILES): Nc1ncc2ccn(-c3ccnc(C#CC4(O)CCC4)c3)c2n1
- IC50 [1]: 388 nM

Structure (SMILES): CN1CCC(O)(C#Cc2ccc(F)c(-c3c[nH]c4cnc(N)nc34)c2)C1=O (centres undefined)
- IC50 [1]: 5.9 nM
- bioavailability [4]: 7%
- Stability [5]: Stable

Structure (SMILES): C[C@](O)(C#Cc1ccc(F)c(-c2c[nH]c3cnc(N)nc23)c1)c1nccs1
- IC50 [1]: 2230 nM

Structure (SMILES): COc1ccc(-n2ccc3cnc(N)nc32)cc1C#CC(C)(O)c1nccs1 (centres undefined)
- IC50 [1]: 1750 nM

Structure (SMILES): COc1ccc(C#CC(C)(O)c2nccs2)cc1-c1c[nH]c2cnc(N)nc12 (centres undefined)
- IC50 [1]: 120 nM

Structure (SMILES): CCc1nc(N)nc2c1ccn2-c1ccnc(C#CC2(O)CCN(C)C2=O)c1 (centres undefined)
- IC50 [1]: 190 nM

Structure (SMILES): CC(O)(C#Cc1cc(Cl)cc(-c2c[nH]c3cnc(N)nc23)c1)c1nccs1 (centres undefined)
- IC50 [1]: > 10000 nM

Structure (SMILES): CC(O)(C#Cc1cc(-n2ccc3cnc(N)nc32)ccn1)C(=O)N1CCCC1 (centres undefined)
- IC50 [1]: 6160 nM

Structure (SMILES): Cc1[nH]c2cnc(N)nc2c1-c1cccc(C#CC(C)(O)c2nccs2)c1 (centres undefined)
- IC50 [1]: 2200 nM

Structure (SMILES): COc1ccc(C#CC(C)(O)c2nccs2)cc1-n1ccc2cnc(N)nc21 (centres undefined)
- IC50 [1]: 216 nM

Structure (SMILES): Nc1ncc2[nH]cc(-c3cccc(C#CC4(O)CCCC4)c3)c2n1
- IC50 [1]: 475 nM

Structure (SMILES): CN(C)CCOc1ccc(-n2ccc3cnc(N)nc32)cc1C#CC(C)(O)c1nccs1 (centres undefined)
- IC50 [1]: > 10000 nM

Structure (SMILES): CC(O)(C#Cc1cncc(-n2ccc3cnc(N)nc32)c1)c1nccs1 (centres undefined)
- IC50 [1]: 1860 nM

Structure (SMILES): Nc1ncc2ccn(-c3ccnc(C#CC4(O)CCNCC4)c3)c2n1
- IC50 [1]: > 10000 nM

Structure (SMILES): Cc1nc(N)nc2c1ccn2-c1ccnc(C#CC2(O)CCN(C)C2=O)c1 (centres undefined)
- IC50 [1]: 85.2 nM

Structure (SMILES): CNc1ccc(-n2ccc3cnc(N)nc32)cc1C#CC(C)(O)c1nccs1 (centres undefined)
- IC50 [1]: > 10000 nM

Structure (SMILES): CC(O)(C#Cc1cccc(-c2c[nH]c3cnc(N)nc23)c1)C(=O)N1CCCC1 (centres undefined)
- IC50 [1]: > 10000 nM

Structure (SMILES): CC(O)(C#Cc1cccc(-c2c[nH]c3cnc(N)nc23)c1)C1CCCCC1 (centres undefined)
- IC50 [1]: 2030 nM

— ChEMBL document CHEMBL4402589, “Discovery of a Potent and Selective NF-κB-Inducing Kinase (NIK) Inhibitor That Has Anti-inflammatory Effects in Vitro and in Vivo” (J Med Chem, 2020)
